Blank lines part the entries; values can stand above or below the compound they belong to. Square brackets hold non-standard residues; d marks the D form. Ends that are not written are not given here. pY = N[C@@H](Cc1ccc(OP(=O)(O)O)cc1)C(=O)O
How the values were obtained:
PKM2 [1] = target: T1, PKM2 (Homo sapiens, UniProt P14618); assay: PKM2 inhibition assay, LDH-coupled, FBP added in excess; format: biochemical; conditions: read-out: Inhibition of PKM2 Activity
Description: For the inhibition assays, a candidate compound (2 μl 100×) was added into a well. In a control well, 2 μl of DMSO was added in place of the candidate compound. […] The mixture incubated at room temperature for 30 minutes. Immediately prior to measurement readings, 10 μl PEP (0.5 mM) and 2 μl FBP/H2O (0.5 μM) were added to each well. The FBP was added in excess.
Target sequence in this assay (P14618 whole entry): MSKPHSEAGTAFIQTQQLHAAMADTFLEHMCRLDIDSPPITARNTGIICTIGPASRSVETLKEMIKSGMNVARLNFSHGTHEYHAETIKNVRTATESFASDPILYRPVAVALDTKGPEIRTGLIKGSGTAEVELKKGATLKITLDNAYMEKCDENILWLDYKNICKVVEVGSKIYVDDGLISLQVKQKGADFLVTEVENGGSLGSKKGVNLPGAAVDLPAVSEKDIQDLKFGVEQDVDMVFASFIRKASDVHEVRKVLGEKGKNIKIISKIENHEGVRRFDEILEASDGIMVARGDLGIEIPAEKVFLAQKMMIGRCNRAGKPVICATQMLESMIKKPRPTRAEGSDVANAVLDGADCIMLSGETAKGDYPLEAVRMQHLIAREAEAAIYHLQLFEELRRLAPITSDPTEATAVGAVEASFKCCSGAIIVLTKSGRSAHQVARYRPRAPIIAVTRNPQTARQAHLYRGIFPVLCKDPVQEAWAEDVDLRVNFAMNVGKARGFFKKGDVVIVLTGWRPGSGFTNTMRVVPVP

PKM2 [2] = target: T1, PKM2; assay: PKM2 activator assay, LDH-coupled, no FBP added; format: biochemical
Description: For the activator assays, a candidate compound (2 μl 100×) was added into a well. In a control well, 2 μl of DMSO was added in place of the candidate compound. […] The mixture incubated at room temperature for 5 minutes. Immediately prior to measurement readings, 10 μl PEP (0.5 mM) were added to each well. No FBP was added.
Target sequence in this assay (P14618 whole entry): as above

recombinant PKM1 = target: T2, recombinant PKM1 (Homo sapiens, UniProt P14618); assay: 14C-FBP retention on protein after dialysis, scintillation counting; format: binding; conditions: ~10 μM 14C-FBP, 1 μM protein
T2 construct: made in house
Description: (§1) However, FBP concentrations following protein purification would be orders of magnitude lower than this value. […] The PKM1, PKM2, and no-protein control were incubated with ^14C-FBP for 30 minutes at room temperature and then […] dialyzed against >2 L of buffer using 10,000 MWCO dialysis cassettes (Pierce) for at least 7 hours. After dialysis, samples were recovered and the amount of ^14C-FBP retained in each dialysis cassette was determined by scintillation counting. […] Upon further analysis, it was estimated that ^14C FBP is retained at roughly half a mole per mole on the PKM2 protein.

PKM2 [3] = target: T1, PKM2; conditions: Yamada and Noguchi 1999; cited from earlier work
Target sequence in this assay (P14618 whole entry, species assumed): as the sequence (P14618 whole entry) above

PKM2 [4] = target: T1, PKM2; assay: FBP competition for binding of recombinant PKM2 to phosphoTyr peptide affinity matrix; parameters: His6 (N); made in house; host or cells: E. coli BL21(DE3)pLysS; conditions: FIG. 2b
Description: To determine if the FBP binding pocket on PKM2 coordinates phosphoTyr peptide binding, it was assessed whether FBP could compete for binding of PKM2 to a phosphoTyr peptide library column. Recombinant protein was synthesized by cloning human PKM2 into a pET28a vector (Novagen) at NdeI and BamHI sites and PKM2 was expressed as a N-terminal His6 tag fusion protein. The protein was expressed and purified with a standard protocol. Briefly, pET28a-PKM2 was transformed into BL2 I (DE3)pLysS cells and grown to an OD600 of 0.8 and induced with 0.5 mM IPTG for seven hours at room temperature. Cells were lysed using lysozyme in lysis buffer (50 mM Tris, pH 8.0, 10 mM MgCl2, 200 mM NaCl, 100 mM KCl, 20% glycerol, 10 mM imidazole, 1 mM PMSF). The cell lysate was cleared by centrifugation. PKM2 was purified by batch binding to Ni—NTA resin (Qiagen). The resin was then washed with lysis buffer containing 30 mM imidazole for 200 column volumes, and His6-tag-PKM2 was eluted with 250 mM imidazole. The protein was dialyzed overnight at 4° C. to remove the imidazole.
Recombinant PKM2 was incubated with increasing amounts of FBP and then flowed over the phosphoTyr peptide affinity matrix. 20 μM FBP was able to compete for binding of recombinant PKM2 to phosphoTyr peptides (FIG. 2b). […]
Target sequence in this assay (P14618 whole entry): as above

PKM2 [5] = target: T1, PKM2; assay: 14C-FBP retention on protein after dialysis, scintillation counting; format: binding; parameters: His6 (N); made in house; host or cells: E. coli BL21(DE3)pLysS
Description: as §1
Target sequence in this assay (P14618 whole entry): as above

M1 and M2 rescue cells = assay: Proliferation of M1 and M2 rescue cells with oligomycin; format: cell-based, human; conditions: subsaturating oligomycin (125 nM); M1 vs M2 rescue cells
Description: To examine whether PKM2 expression enhances tumor cell growth under lowered oxygen and glucose conditions, proliferation rates of the M1 and M2 rescue cells (M2 knockdown cells expressing mM1 or mM2) were measured in physiologic glucose levels and hypoxic oxygen. […] The percent decrease in oxygen consumption following addition of subsaturating amounts of oligomycin, a specific inhibitor of mitochondrial ATP synthase, was the same in both the M1 and M2 cells.
5×10^4 cells were seeded in triplicate in 6-well plates and accurate cell counts were obtained every 24 hours using a Coulter particle analyzer for a 3-5 day period. Time zero was taken 16 hours post-seeding. Cells grown in low oxygen were incubated in a sealed hypoxia chamber set to 0.5% oxygen. Cells grown in the presence of oligomycin were treated with 125 nM oligomycin at time zero.

PKM2 [6] = target: T1, PKM2; assay: Release of 14C-FBP from FBP-loaded recombinant PKM2 after peptide exposure and dialysis; format: binding; parameters: His6 (N); made in house; host or cells: E. coli BL21(DE3)pLysS; conditions: 14C counts retained after dialysis; FIG. 4e
Description: To examine the effect of phosphoTyr peptide binding on FBP-bound PKM2, a peptide-binding motif for PKM2 was obtained using traditional peptide library screening. Both the phosphorylated (P-M2tide) and unphosphorylated (NP-M2tide) versions of the optimal peptide were synthesized: P-M2tide (GGAVDDDpYAQFANGG SEQ ID NO:1) and NP-M2tide (GGAVDDDYAQFANGG SEQ ID NO:2) (FIG. 5). The FBP-loaded recombinant PKM2 was incubated with P-M2tide or NP-M2tide, the unbound FBP and peptide were dialyzed away, and the counts retained on the PKM2 were measured.
Target sequence in this assay (P14618 whole entry): as above

PKM2 [7] = target: T1, PKM2; assay: Recombinant PKM2 activity with P-M2tide / NP-M2tide, LDH-coupled assay; format: biochemical; parameters: His6 (N); made in house; host or cells: E. coli BL21(DE3)pLysS; conditions: dose-dependent; FIG. 6a
Source text: Multiple phosphoTyr peptides comprising in vivo phosphorylation sites previously identified on metabolic proteins (Villen et al., Proc. Natl. Acad. Sci. USA 104: 1488-93, 2007) were synthesized. Several of these phosphoTyr peptides, as well as multiple phosphoTyr peptides designed after known tyrosine kinase motifs, were also shown to inhibit PKM2 activity (FIG. 6b).
Target sequence in this assay (P14618 whole entry): as above

Flag-tagged PKM2 = target: T3, Flag-tagged PKM2 (Mus musculus, UniProt P52480); assay: 3H bound to immunoprecipitated Flag-tagged PKM2 in cells cultured with 3H-glucose; format: cell-based; conditions: 15-minute treatment with pervanadate
T3 construct: expressed in transfected cells
Description: Next, the ability of phosphoTyr protein binding to catalyze the release of FBP from PKM2 in vivo was tested. To address this, cells were cultured overnight with ^3H-glucose that can be metabolized to ^3H-FBP. Flag-tagged PKM2 was immunoprecipitated and the amount of ^3H bound to PKM2 with and without pervanadate-treatment was determined by scintillation counting.

PKM2-expressing cells [8] = assay: Incorporation of metabolites from 14C-glucose into lipids; format: cell-based
Source text: (§2) Consistent with this model, a 25% increase in the incorporation of metabolites from ^14C-glucose into lipids upon pervanadate-treatment of PKM2-expressing cells was observed. […] A similar increase in the incorporation of ^14C-glucose metabolites into lipids was observed upon pervanadate stimulation of 293 cells.

PKM2-expressing cells [9] = assay: Cellular oxygen consumption after acute pervanadate stimulation; format: cell-based
Description: as §2
Cellular oxygen consumption rates were measured using a water-jacketed (37° C.) anaerobic chamber fitted with a polarographic oxygen electrode as described previously (Vander Heiden et al, Mol Cell Biol 21: 5899-912, 2001). The electrode was calibrated with 150 mM NaCl equilibrated to room air at 37° C. (corresponding to 199 nmol O2/ml).

pyruvate kinase = conditions: pervanadate stimulation
Description: Pyruvate kinase activity was measured according to published methods by a continuous assay coupled to lactate dehydrogenase (LDH). The change in absorbance at 340 nm due to oxidation of NADH was measured using a Victor^3 1420 Multilabel Counter spectrophotometer (PerkinElmer, Inc.). Kinetic assays for activity determinations contained recombinant PK (20-100 ng) or cell lysate (1-2 μg), Tris (pH 7.5) (50 mM), KCl (100 mM), MgCl2 (5 mM), ADP (0.6 mM), PEP (0.5 mM), NADH (180 pM), FBP (10 pM), and LDH (8 units).

T3 sequence (P52480 whole entry): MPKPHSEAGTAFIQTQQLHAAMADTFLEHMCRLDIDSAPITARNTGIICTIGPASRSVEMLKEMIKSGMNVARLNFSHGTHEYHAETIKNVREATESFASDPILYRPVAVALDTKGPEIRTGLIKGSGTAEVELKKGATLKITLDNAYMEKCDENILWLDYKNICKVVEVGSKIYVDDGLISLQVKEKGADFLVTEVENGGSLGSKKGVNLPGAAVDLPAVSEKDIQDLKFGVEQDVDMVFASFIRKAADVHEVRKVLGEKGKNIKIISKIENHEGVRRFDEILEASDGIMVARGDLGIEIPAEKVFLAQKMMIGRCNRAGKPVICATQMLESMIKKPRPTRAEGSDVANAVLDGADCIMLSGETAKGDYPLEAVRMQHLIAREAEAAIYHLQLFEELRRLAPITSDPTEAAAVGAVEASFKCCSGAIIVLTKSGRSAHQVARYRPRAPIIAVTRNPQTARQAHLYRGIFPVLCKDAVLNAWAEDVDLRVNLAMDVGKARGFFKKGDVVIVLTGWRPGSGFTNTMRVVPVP
T2 sequence (P14618 1-531 isoform P14618-2, species assumed): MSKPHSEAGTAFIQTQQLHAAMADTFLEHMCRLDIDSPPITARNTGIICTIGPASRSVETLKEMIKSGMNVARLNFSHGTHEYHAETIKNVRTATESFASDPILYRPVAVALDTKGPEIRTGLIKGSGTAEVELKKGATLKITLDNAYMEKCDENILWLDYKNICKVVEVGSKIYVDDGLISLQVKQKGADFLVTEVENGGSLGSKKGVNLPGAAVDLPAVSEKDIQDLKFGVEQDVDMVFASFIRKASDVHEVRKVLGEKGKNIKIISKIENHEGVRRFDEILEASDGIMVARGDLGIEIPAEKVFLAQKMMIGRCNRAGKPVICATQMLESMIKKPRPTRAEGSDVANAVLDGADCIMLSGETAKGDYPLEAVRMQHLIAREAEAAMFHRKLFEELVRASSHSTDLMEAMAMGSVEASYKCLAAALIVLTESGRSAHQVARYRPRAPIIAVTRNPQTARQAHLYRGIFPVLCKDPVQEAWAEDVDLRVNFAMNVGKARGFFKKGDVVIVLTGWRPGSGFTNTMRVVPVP

Compound: CC[C@H]1/C=C/C=C/C[C@@H](C)[C@H](O)[C@@](C)(O)C(=O)[C@@H](C)[C@H](O)[C@@H](C)C(=O)[C@@H](C)[C@H](O)[C@@H](C)/C=C/C(=O)O[C@@H]2[C@H](C)[C@H](CC1)O[C@]1(CC[C@H](C)[C@H](C[C@@H](C)O)O1)[C@H]2C [oligomycin]
effect on proliferation rate (M1 and M2 rescue cells): affected the proliferation rate of the M1 cells significantly more than the M2 cells

Compound: GGAVDDDYAQFANGG [NP-M2tide]
FBP retained on / released from PKM2 (PKM2 [6]): significant amount of FBP remaining bound to PKM2

Compound: pervanadate
reduction in 3H that immunoprecipitated with PKM2 (Flag-tagged PKM2): 30±13%
increase in the incorporation of metabolites from 14C-glucose into lipids (PKM2-expressing cells [8]; PKM2-expressing cells): 25%
14C incorporation into lipids (PKM2-expressing cells [8]; cells expressing the KE point mutant of PKM2): no significant increase
decrease in oxygen consumption (PKM2-expressing cells [9]; M2KE-expressing cells): 15±4%
decrease in oxygen consumption (PKM2-expressing cells [9]; PKM2-expressing cells): 36±1%
decrease in total pyruvate kinase activity (pyruvate kinase; 293, A549 and H1299 cells, FIG. 6c): 20-30%
pyruvate kinase activity in M1-, M2-, M2KE-, L-expressing knockdown cells (pyruvate kinase; H1299 knockdown/rescue cells, FIG. 6g): specific inhibition of pyruvate kinase activity only in the wild-type M2-expressing cells

Continued, in another order:

inhibition at 10 µM (PKM2 [1]; 0.01 mM compound): 21%
inhibition at 100 µM (PKM2 [1]; 0.1 mM compound): 36%
inhibition at 1000 µM (PKM2 [1]; 1 mM compound): 55%
Compound: Cc1ccc(C)n1-c1ccc(O)c(C(=O)O)c1

% Activation of PKM2 by FBP (PKM2 [2]; 0.1 μM FBP): 62%
% Activation of PKM2 by FBP (PKM2 [2]; 0.3 μM FBP): 89%
% Activation of PKM2 by FBP (PKM2 [2]; 1 μM FBP): 114%
FBP concentration able to compete for binding of recombinant PKM2 to phosphoTyr peptides (PKM2 [4]): 20 µM
14C FBP retained on the PKM2 protein (PKM2 [5]; estimated upon further analysis): roughly half
more 14C counts than PKM1 sample and no-protein control (PKM2 [5]; ~10 μM 14C-FBP, 1 μM protein, after dialysis): 52±5%
Compound: O=C(COP(=O)(O)O)[C@@H](O)[C@H](O)[C@H](O)COP(=O)(O)O [FBP, fructose-1,6-bisphosphate]
14C counts retained in PKM1 sample (recombinant PKM1): same amount of ^14C counts as the no-protein control sample
Ka values for FBP binding to PKM2 (PKM2 [3]): micromolar range

inhibition of PKM2 activity (PKM2 [7]): 20-30%
FBP retained on / released from PKM2 (PKM2 [6]): release of the majority of the FBP
Compound: GGAVDDDpYAQFANGG (GGAVDDD[pY]AQFANGG) [P-M2tide]
